Assay results published in US9937230B2, “Ophthalmic uses of toxin-based therapeutic peptides and pharmaceutical compositions thereof” (Kineta One, LLC, priority 2013, dated 2018).
“Also recorded” adds a separate entry of the source.

Assays:
[1] = tested on: rat model of experimental autoimmune anterior uveitis (EAAU); assay: Melanin associated antigen (MAA) induced experimental autoimmune anterior uveitis (EAAU) model; type: in vivo
Text: One model used to evaluate the therapeutic potential of ShK-186 in autoimmune eye diseases such as uveitis was the melanin associated antigen (MAA) induced experimental autoimmune anterior uveitis (EAAU). In this model, male Lewis rats 5-10 week old (Charles River) are immunized with MAA emulsified in complete Freund's adjuvant (CFA) subcutaneously and also receive a single intraperitoneal injection of pertussis toxin (0.2 to 1 mcg/animal). Symptoms of disease begin to appear by day 10 and peak by day 18 post immunization. The animals typically recover by day 25.
Preparation of the MAA. MAA was prepared following the procedure outlined by Simpsom et al., Eye 11, 206-208, (1997) with some modifications. The iris and ciliary body structure were dissected from 25 fresh pigmented cow eyes. The tissue was cut into small pieces and then homogenized in cold PBS. The homogenate was spun at 4000 g for 10 minutes, washed three times with PBS and then put through a detergent extraction with 2% Triton X-100, rotating for 3 hours at room temperature. The resulting material was again spun and washed three times with PBS and subject to another detergent extraction this time using 2% SDS, rotating for 3 hours at 37° C. This material was washed three times with PBS followed by three washes with H2O and a final wash with 70% ethanol. The MAA pellet was placed under a vacuum for approximately 15 min, resulting in dried antigen material stored frozen at −20° C.
Preparation of MAA:CFA emulsions. For the emulsion used for the experiment whose results are shown in FIG. 4, 50 milligrams of MAA were resuspended in 3.8 mL of PBS, and after vortexing briefly the suspension, was sonicated for 30 seconds three times incubating on ice for 30 seconds in between. This slurry was passed through a 100 μm cell strainer, thicker material was pressed through using a syringe plunger. The protein content of the suspension was determined to be 3.27 mg/mL using a commercially available BCA kit (Pierce 23225), and was stored frozen at −20° C. until use. On the day of immunization (day 0), the stock MAA was thawed at room temperature and vortexed briefly before a working dilution of 600 μg/mL was made. This solution was then mixed drop wise 1:1 with CFA while vortexing, for a final antigen concentration of 300 μg/mL (or 30 μg per animal). Emulsions were allowed to vortex an additional 5 minutes before being loaded into syringes and passed through an 18 G emulsifying bridge until very thick. Emulsions were injected the same day, 50 μL subcutaneous to each footpad, 100 μL total per animal, according to group. FIGS. 4A-D show the pathology associated with this disease model and the effects of ShK-186 topical administration on the occurrence and severity of disease.
Eyes were given individual scores based on pupil function (miosis), iris structure, presence of cells in the anterior chamber, and presence of protein in the anterior chamber (flare). Scores were then converted into a composite clinical score for each day.
For this analysis, sections of eyes previously fixed in 10% formalin were scored for iris and ciliary body structure and the degree of inflammatory cell infiltration to the stroma of the iris and/or ciliary body and anterior chamber according to disease parameters outlined by Kim et al., supra (1997); this was done by an independent veterinary pathologist. In FIG. 4C (1.) a control healthy eye (10×) is shown; (2.) & (4.) show the eye from an animal treated with vehicle that was scored a 2 (10×, 40×); (3.) & (5.) show the eye from an animal treated three times daily with 0.1% ShK-186 for 8 days followed by 1% ShK-186 for 10 days which was given a histopathology score of 0 (10×, 40×).
Clinical observations were made of each animal using a slit lamp on day 13 post induction of EAAU by immunization with an adjuvanted MAA emulsion. […]

[2] = tested on: T cells or macrophages from dry-eye or uveitis patients; assay: Ex vivo proliferation of T cells or macrophages during ex vivo activation; type: cell-based, human; conditions: [3H] thymidine incorporation or CFSE
Text: (§1) In order to carry out functional assays, PBMCs from uveitis or dry eye patients and healthy controls are isolated. In the first phase of the example, the cells are either tested shortly after […] without ex vivo stimulation or activated ex vivo with anti-CD3 and anti-CD28 antibodies or mitogens and then subjected to immunostaining and multicolor flow cytometry to study expression levels of Kv1.3 channel on the surface of TEM within the CD4 and CD8+ T-cell subsets. Cells isolated from patients are expected to be high in expression of Kv1.3 without stimulation ex vivo, but this expression could increase upon activation ex vivo. […] Cytokines including IFN-γ, IL-2, IL-4, IL-10, IL-17, IL-21, and IL-22, perforin, and granzyme B are detected by intracellular staining and flow cytometry in resting or activated cells in the presence or absence of toxin-based therapeutic peptide. Additionally, they can be quantitated by an assay such as multiplexing ELISA of collected supernatants. […] This reduction can be measured by quantification of [^3H] thymidine incorporation or the fluorescent dye CFSE, among other standard immunological methods.

[3] = tested on: human peripheral blood mononuclear cells (PBMCs) stimulated with thapsigargin; assay: Suppression of thapsigargin-stimulated inflammatory cytokine production in human PBMCs; type: cell-based; conditions: FIG. 2
Text: (§2) This Example explores the ability of pharmaceutical compositions including toxin-based therapeutic peptides disclosed herein to reduce pro-inflammatory cytokine secretion caused by thapsigargin (Sigma-Aldrich, St. Louis, Mo., USA). Thapsigargin stimulates proinflammatory cytokine release by inhibiting the Ca2+ ion pump proteins of intracellular membranes in the sarcoplasmic reticulum and endoplasmic reticulum of microsomes. This inhibition results in a rapid release of Ca2+ stores and subsequent activation of plasma membrane calcium channels.
(§3) Preparation of primary blood cells. Whole blood and peripheral blood mononuclear cells (PBMCs) were used to test the suitability of an ShK-based therapeutic peptide as disclosed herein for treating a subject with an ophthalmic condition including dry eye. Whole blood was directly aliquoted to cell culture for experimental assays without any additional processing.
PBMCs were isolated from donor blood by density gradient centrifugation as follows. Blood was collected in collection tubes containing sodium heparin as an anticoagulant and a cell separation medium including a polyester gel and a density gradient liquid (BD Vacutainer CPT). The samples were centrifuged at 1500 RCF for 20 minutes at room temperature. The cell layer containing mononuclear cells and platelets lies just below the plasma layer and was collected into a separate 15 mL conical tube using a Pasteur Pipette. The cells were washed twice with PBS and pelleted by centrifugation to remove the supernatant. The purified PBMCs were resuspended in complete RPMI (cRPMI) cell culture media and plated to the appropriate density for the assay.
(§4) Treatment of primary blood cells. ShK-186 was serially diluted in cRPMI to 4× final concentration working stock. 50 μL of working stock was added to 6 wells of a 96-well cell culture plate per concentration of ShK-based peptide. 50 μL of cRPMI without ShK-based peptide was used as control treatment in positive control (no ShK-based peptide, thapsigargin stimulus) and in negative control (no ShK-based peptide, no thapsigargin stimulus) wells. 100 μL whole blood or 200,000 PBMCs in complete RPMI was added to each well of the 96-well cell culture plate. Cells with ShK-based peptide or media control were incubated at 37° C. and 5% CO2 for one hour. After one hour, 50 μL of 40 uM thapsigargin stimulus was added to all wells except for negative control wells which received 50 μL 0.4% DMSO to 0.1% final concentration. Cells were incubated for 48 hours.
(§5) Analysis of ShK-based peptide treated and thapsigargin stimulated cells. 48 hours after stimulation by thapsigargin, 96-well plates were centrifuged at 2000 RPM for 5 minutes. The supernatant was carefully transferred to a sterile 96-well plate for sample analysis. Cytokines were detected using specific antibodies conjugated to magnetic beads and a secondary antibody that reacts with Streptavidin/Phycoerythrin to produce a fluorescent signal. The bound beads were detected and quantified using the Magpix instrument (Luminex Corp., Austin, Tex., USA), although similar techniques as are known in the art may be used to measure protein production, such as for example an ELISA, using methods of detection including fluorescent and colorimetric methods.

[4] = Local (eye) and systemic (plasma) drug levels after topical ocular administration, Sprague-Dawley rats, ELISA; type: in vivo, rat
Protocol: Three female 6-8 week old Sprague-Dawley rats (Indianapolis, Ind., USA) were dosed three times per day with topically administered 10 μL of P6N (sodium phosphate (10 mM), sodium chloride (0.8%), and Polysorbate 20 (0.05%) at pH 6.0) on the left eye (LE) and 10 μL of 0.5% ShK-186 in P6N on the right eye (RE) for 21 days. Blood was collected at 3, 7, 12, 14, 17, and 21 days and processed to plasma. […] ShK-186 levels in collected samples were measured using a standard direct ELISA method.

[5] = tested on: human whole blood stimulated with thapsigargin; assay: Suppression of thapsigargin-stimulated inflammatory cytokine production in human whole blood; type: cell-based; conditions: FIG. 1
Text: as §2, §3, §4, §5

[6] = tested on: unstimulated or activated T cells or macrophages from dry-eye or uveitis patients; assay: Ex vivo cytokine expression in T cells or macrophages from dry eye or uveitis patients; type: cell-based, human; conditions: ex vivo addition of ShK-186, intracellular staining/flow cytometry or multiplexing ELISA
Text: as §1

[7] = day 18 post immunization, 0.1% then 1% ShK-186 topically
[8] = PBMCs treated with ShK-186 one hour prior to thapsigargin, supernatant 48 hours after stimulation
[9] = PBMCs, thapsigargin stimulation
[10] = whole blood treated with ShK-186 one hour prior to thapsigargin, supernatant 48 hours after stimulation
[11] = whole blood, thapsigargin stimulation

For “(L-Tyr)-AEEAc-RSCIDTIPKSRCTAFQCKHSMKYRLSFCRKTCGTC-amide [ShK-198]”, the “clinical score (cells in the anterior chamber; protein in the anterior chamber or flare)” value ([1]; slit lamp day 13 post induction, 1% ShK-198 topically three times daily versus P6N vehicle, N=10 rats/20 eyes) was “reduces”.

For “(L-PhosphoTyr)-AEEAc-RSCIDTIPKSRCTAFQCKHSMKYRLSFCRKTCGTC-amide [ShK-186]”, the “ex vivo proliferation of T cells or macrophages” value [2] was “significantly reduces”, the gross pathology ([1]; ShK-186 topical administration versus vehicle (P6N), FIG. 4B) was “reduced” and the “composite clinical score of animal 4-8” value ([1]; day 18 post immunization, 0.1% ShK-186 for 9 days then 1% for 10 days topically, vehicle animal 3-2 scored 13) was 0. The “cells in the anterior chamber score of animal 4-8” value [1, 7] was 0, the “iris vessels and structure score of animal 4-8” value [1, 7] was 0 and the “protein in the anterior chamber (flare) score of animal 4-8” value [1, 7] was 0. For the same substance, the “pupil score of animal 4-8” value [1, 7] was 0, the histopathology ([1]; eyes collected day 19 post immunization, H&E sections, FIG. 4C) was “reduces” and the “composite clinical score versus vehicle” value ([1]; slit lamp, days 11, 13, 15, 18 post induction, topical three times daily 0.1% day 0-8 and 1% ShK-186 day 9-18, N=8 rats/16 eyes) was “significantly lower”. The “histopathology score of an eye from a treated animal” value ([1]; three times daily 0.1% ShK-186 followed by 1% ShK-186 for 10 days, vehicle eye scored 2) was 0, the “suppression of IFN-γ level” value [3, 8] was “suppressed; also recorded: dose-dependent manner” and the “suppression of IL-2 level” value [3, 8] was “suppressed; also recorded: dose-dependent manner”. For the same substance, the “suppression of IL-4 level” value [3, 8] was “suppressed; also recorded: dose-dependent manner”, the “suppression of IL-17 level” value [3, 8] was “suppressed; also recorded: dose-dependent manner” and the “IC50, IFN-γ suppression” value [3, 9] was “picomolar range”. For the same substance, the “IC50, IL-2 suppression” value [3, 9] was “picomolar range”, the “IC50, IL-4 suppression” value [3, 9] was “picomolar range” and the “IC50, IL-17 suppression” value [3, 9] was “picomolar range”. For the same substance, the “ShK-186 in plasma (systemic exposure)” value ([4]; 0.5% ShK-186 topically to right eye three times per day for 21 days) was “no detectable and not”, the “ShK-186 concentration in aqueous fluid of the treated right eye (RE)” value ([4]; 10 μL of 0.5% ShK-186 in P6N topically three times per day for 21 days, samples at 21 days) was “significant concentrations” and the “ShK-186 in samples from the untreated left eye (LE)” value ([4]; right eye dosed 0.5% ShK-186 three times per day for 21 days, left eye vehicle) was “no detectable”. For the same substance, the “suppression of IFN-γ level” value [5, 10] was “dose-dependent manner; also recorded: suppressed”, the “suppression of IL-2 level” value [5, 10] was “dose-dependent manner; also recorded: suppressed” and the “suppression of IL-4 level” value [5, 10] was “dose-dependent manner; also recorded: suppressed”. The “suppression of IL-17 level” value [5, 10] was “dose-dependent manner; also recorded: suppressed”, the “IC50, IFN-γ suppression” value [5, 11] was “picomolar range” and the “IC50, IL-2 suppression” value [5, 11] was “picomolar range”. The “IC50, IL-4 suppression” value [5, 11] was “picomolar range”, the “IC50, IL-17 suppression” value [5, 11] was “picomolar range” and the “expression of cytokines (IFN-γ, IL-2, IL-4, IL-10, IL-17, IL-21, IL-22, perforin, granzyme B)” value [6] was “significantly reduces”.
